The values below come from US7365221B2, “Monoacylated betulin and dihydrobetulin derivatives, preparation thereof and use thereof” (priority 2002, dated 2008).

Each structure is given as a SMILES string. Read-outs that look alike come from different tables or passages of the source. Some results are limits rather than exact numbers.

As usually defined, the IC50 is the point on the concentration scale where inhibition reaches its midpoint. A word on the EC50: it is the concentration that produces a half-maximal response.

The subject of one data set is uninfected cells. The data set is described as follows: Cytotoxicity on compound-exposed uninfected cells. The protocol: (§1) The biological evaluation of HIV-1 inhibition was carried out as follows according to established protocols (Montefiori et al., Clin Microbiol. 26:231-235 (1988)). The human T-cell line, MT-2, was maintained in continuous culture with complete medium (RPMI 1640 with 10% fetal calf serum supplemented with L-glutamine at 5% CO2 and 37° C.). Test samples were first dissolved in dimethyl sulfoxide at a concentration of 10 mg/ml to generate master stocks with dilutions made into tissue culture media to generate working stocks. The following drug concentrations were routinely used for screening: 100, 20, 4 and 0.8 μg/ml. For agents found to be active, additional dilutions were prepared for subsequent testing so that an accurate EC50 value (defined below) could be determined. Test samples were prepared and to each sample well was added 90 μl of media containing MT-2 cells at 3×10^5 cells/ml and 45 μl of virus inoculum (HIV-1 IIIIB isolate) at a concentration necessary to result in 80% killing of the cell targets at 5 days post-infection (PI). Control wells containing virus and cells only (no drug) and cells only (no virus or drug) were also prepared. A second set of samples were prepared identical to the first and were added to cells under identical conditions without virus (mock infection) for toxicity determinations (IC50 defined below). In addition, AZT was also assayed during each experiment as a positive drug control. On day 5 PI, virus-induced cell killing was determined by measuring cell viability using the XTT method. Compound toxicity was determined by XTT using the mock-infected samples. If a test sample had suppressive capability and was not toxic, its effects were reported in the following terms: IC50, the concentration of test sample which was toxic to 50% of the mock-infected MT-2 cells; EC50, the concentration of the test sample that was able to suppress HIV replication by 50%; and the Therapeutic index (TI) the ratio of the IC50 to EC50.
(§2) Compounds of the present invention were assayed for anti-HIV activity according to the following assay procedures. The T cell line, H9, and the promonocytic cell line, U937, were maintained separately in continuous culture with complete medium (RPMI 1640 with 10% fetal calf serum) at 5% CO2 and 37° C. The cell lines were used in experiments only when in the logarithmic phase of growth, whereas uninfected peripheral blood mononuclear cells (PBMCs) were first stimulated with PHA (1 μg/mL) for three days. All cell targets were incubated with HIV-1 (IIIB isolate, 1×10^6 TCID50/mL) for one hour at 37° C. and 5% CO2. The cell lines and PBMCs were washed thoroughly to remove unadsorbed virions and resuspended at 4×10^5 cells/mL in complete medium or complete medium with 10% v/v interleukin 2 (IL-2), respectively. 100 μL aliquots were placed into wells of 96-well tissue culture plates containing an equal volume of test compounds (diluted in the appropriate culture medium). The toxicity of each compound was assessed by determining the number of compound-exposed uninfected cells that remained after five days at 37° C. and 5% CO2. A p24 antigen ELISA assay was used to determine the level of virus released in the medium of the HIV-infected cultures. […] The cutoff for the p24 ELISA assay was 12.5 pg/mL. p24 in the culture medium was quantitated against a standard curve containing known amounts of p24. The effective (EC50) and inhibitory (IC50) concentrations for anti-HIV activity and cytotoxicity, respectively, were determined.

A further data set deals with HIV-1 (IIIB isolate). The format is cell-based. Particulars: average of at least two experiments; cell line not stated; read-out: Anti-HIV Activity EC50. The protocol: as §1, §2
The subject of data set [1] is HIV-1 replication in H9 lymphocyte cells. Particulars: Fujioka et al. 1994, cited from earlier work.
Setting [2] is: read-out: Cytotoxicity IC50, average of at least two experiments, uninfected cells.
Setting [3] is: H9 lymphocyte cells, read-out: EC50, inhibitory activity against HIV-1 replication.

Consider `C=C(C)[C@@H]1CC[C@]2(CO)CC[C@]3(C)[C@H](CC[C@@H]4[C@@]5(C)CC[C@H](OC(=O)CCCC(=O)OCC)C(C)(C)[C@@H]5CC[C@]43C)[C@@H]12` [Compound 18, 3-O-glutaryl betulin ethyl ester], for which the concentration for half-maximal inhibition (IC50) in the data set on uninfected cells (setting [2]) was determined as 36400 nM. Besides, the EC50 in the data set with HIV-1 (IIIB isolate) amounted to 16.9 nM. Regarding `C=C(C)[C@@H]1CC[C@]2(CO)CC[C@]3(C)[C@H](CC[C@@H]4[C@@]5(C)CC[C@H](OC(=O)CCCC(=O)O)C(C)(C)[C@@H]5CC[C@]43C)[C@@H]12` [Compound 10, 3-O-glutaryl betulin], the IC50 with uninfected cells (setting [2]) was determined as 44400 nM. In the data set with HIV-1 (IIIB isolate), the EC50 worked out at 66.2 nM. Consider `C=C(C)[C@@H]1CC[C@]2(CO)CC[C@]3(C)[C@H](CC[C@@H]4[C@@]5(C)CC[C@H](OC(=O)COCC(=O)O)C(C)(C)[C@@H]5CC[C@]43C)[C@@H]12` [Compound 12], for which the IC50 with uninfected cells is greater than 44800 nM. The concentration for a half-maximal effect (EC50) in the data set on HIV-1 (IIIB isolate) was 24.6 nM.

For `CC(C)[C@@H]1CC[C@]2(C(=O)O)CC[C@]3(C)C(CCC4[C@@]5(C)CC[C@H](O)C(C)(C)C5CC[C@]43C)C12` (stereo partly shown) [dihydrobetulinic acid], in data set [1] (unit inferred, read-out: EC50, anti-HIV activity), the EC50 is 900 nM. The compound `C=C(C)[C@@H]1CC[C@]2(CO)CC[C@]3(C)[C@H](CC[C@@H]4[C@@]5(C)CC[C@H](OC(=O)CC(C)(C)CC(=O)O)C(C)(C)[C@@H]5CC[C@]43C)[C@@H]12` [Compound 8] registered a 50% inhibitory concentration (IC50) in the data set on uninfected cells of 28900 nM. In addition, in the data set with HIV-1 (IIIB isolate), the concentration for a half-maximal effect (EC50) amounted to 4.4 nM. As for `CC(=O)[C@@H]1CC[C@]2(C(=O)O)CC[C@]3(C)[C@H](CC[C@@H]4[C@@]5(C)CC[C@H](O)C(C)(C)[C@@H]5CC[C@]43C)[C@@H]12` [platanic acid], the EC50 in data set [1] (setting [3]) is 6500 nM. Compound `C=C(C)[C@@H]1CC[C@]2(CO)CC[C@]3(C)[C@H](CC[C@@H]4[C@@]5(C)CC[C@H](OC(=O)CC(C)(C)C(=O)O)C(C)(C)[C@@H]5CC[C@]43C)[C@@H]12` [Compound 6] registered an IC50 in the data set on uninfected cells of 33500 nM. The EC50 in the data set on HIV-1 (IIIB isolate) was 5.6 nM. As for `C=C(C)[C@@H]1CC[C@]2(C(=O)O)CC[C@]3(C)[C@H](CC[C@@H]4[C@@]5(C)CC[C@H](O)C(C)(C)[C@@H]5CC[C@]43C)[C@@H]12` [Betulinic acid, betulinic acid], the concentration for a half-maximal effect (EC50) in data set [1] (setting [3]) is 1400 nM.
